Molecules are shown by their SMILES. Where “and” joins values, the source holds several entries; their conditions need not be identical. Equal values may be shown once.

For assay [1], the target named is T1, pyruvate kinase in human CD4+ T cell lysates (Homo sapiens, UniProt P14618).
T1 construct: endogenous in cells; host or cells: primary human CD4+ T cells
The experiment in a line: CD4+ T cell pyruvate kinase assay (PK activity in lysates of compound-treated cells). It is filed as cell-based. As to conditions: primary human CD4+ T cells incubated with compound 20 minutes, washed, lysed; ΔAbsorbance OD570 nm. The procedure:
Measuring Pyruvate Kinase (PK) Activity in Human CD4+ T Cell Lysates
Compound activation of pyruvate kinase in human CD4+ T cell lysates was determined by biochemical assay. Primary CD4+ T cells were used rather than cancer cell lines to improve the disease relevance of the assay. The PK assay was sourced from Abcam. All other reagents were sourced from ThermoFisher. Test compounds were prepared as 10 mM DMSO stocks and dilution series prepared in DMSO for addition to intact CD4+ T cells cultured in RPMI media containing 10% FBS.
Human CD4+ T cells were incubated with compound for 20 minutes and then washed twice in 1×PBS before resuspension in Abcam PK lysis buffer to prepare cell lysates. 10 μl PK assay Reaction Mix was added per well, including OXIRED™ PROBE. The plates were read using a BMG Labtech Pherastar plate reader at OD570 nm in kinetic mode for […] (25 cycles of 2 minutes) at 25° C., protecting from light.
Plates were blank-subtracted and ΔAbsorbance calculated by subtracting the first plate read within the linear range from the plate read at the timepoint of interest. PK activity is expressed as ΔAbsorbance and plotted against log [Compound].

Another assay concerns the target T2, recombinant human PKM2 (Homo sapiens, UniProt P14618).
T2 construct: His (N); purchased R&D Systems
The experiment in a line: Human PKM2 activation assay (Kinase-Glo Plus luminescence, ATP generated). It is filed as biochemical. The following applies: * = repeat experiments; for EC50: activation of N-terminal His-tagged hPKM2, 4-parameter logistic fit; for Emax: read-out: hPKM2 Emax. The protocol: Measuring In Vitro Activation of Recombinant Human PKM2
Compound activation of recombinant human PKM2 pyruvate kinase activity was determined by biochemical assay. N-terminal His-tagged hPKM2 was sourced from R&D Systems and its substrates phosphoenolpyruvate (PEP) and ADP from Sigma-Aldrich and 2Bscientific Ltd, respectively. The Kinase-Glo® Plus luminescence assay was from Promega. All other reagents were from Sigma-Aldrich. Test Compounds were prepared as 10 mM DMSO stocks and dilution series prepared in DMSO for direct dilution into Assay Buffer comprising 50 mM imidazole, 50 mM KCl, 7 mM MgCl2, 0.01% Tween20, 0.05% BSA (pH 7.2).
Human PKM2 was diluted into Assay Buffer comprising 50 mM imidazole, 50 mM KCl, 7 mM MgCl2, 0.01% Tween20, 0.05% BSA (pH 7.2) to a final concentration of […]. Enzyme-Assay Buffer mix was dispensed into a 384-well shallow-well white-walled plate (PerkinElmer) and Test Compounds added by acoustic dispense (Echo®, Labcyte Inc.).
(§1) After 60 minutes' incubation on an orbital shaker (300 rpm, 26° C.), enzyme activity was quantified by the luminescent detection of generated ATP. Kinase-Glo® Plus reagent was added to each well and the plates incubated for a further 15 minutes on an orbital shaker in the dark (300 rpm, 26° C.) before luminescence measurement on a plate reader (PHERAstar® FSX, BMG Labtech).
(§2) Percentage activation was calculated by normalising […] signals to plate LOW (DMSO vehicle) and HIGH (5 μM TEPP-46) controls. EC50 and Emax values were determined from 4-parameter logistic fits of compound concentration-response curves.

The target in another assay is T3, recombinant human PKLR (Homo sapiens, UniProt P30613).
T3 construct: His (N); purchased R&D Systems
Nature of the assay: Human PKLR activation assay (Kinase-Glo Plus luminescence, ATP generated). It is filed as biochemical. The following applies: * = repeat experiments; for EC50: activation of N-terminal His-tagged hPKLR, 4-parameter logistic fit; for Emax: read-out: hPKLR Emax. The procedure: Biological Example 2—Human PKLR Activation Assay
Measuring In Vitro Activation of Recombinant Human PKLR
Compound activation of recombinant human PKLR pyruvate kinase activity was determined by biochemical assay. N-terminal His-tagged enzyme was sourced from R&D Systems and its substrates phosphoenolpyruvate (PEP) and ADP from Sigma-Aldrich and 2Bscientific Ltd, respectively. The Kinase-Glo® Plus luminescence assay was from Promega. All other reagents were from Sigma-Aldrich. Test Compounds were prepared as 10 mM DMSO stocks and dilution series prepared in DMSO for direct dilution into Assay Buffer comprising 50 mM imidazole, 50 mM KCl, 7 mM MgCl2, 0.01% Tween20, 0.05% BSA (pH 7.2).
Human PKLR was diluted into Assay Buffer to a final concentration of 5 μM. Enzyme-Assay Buffer mix was dispensed into 384-well shallow-well white-walled plates and Test Compounds added by acoustic dispense (Echo®, Labcyte Inc). Following 10 minutes' incubation at room temperature, the enzyme reaction was initiated by acoustic dispensing of ADP+PEP substrate to final concentrations of 254 μM ADP and 53 μM […].
as §1, §2

The mark [2] stands for this setting: percentage activation normalised to DMSO (LOW) and 5 μM TEPP-46 (HIGH).

T1 sequence (P14618 2-531 limits assumed): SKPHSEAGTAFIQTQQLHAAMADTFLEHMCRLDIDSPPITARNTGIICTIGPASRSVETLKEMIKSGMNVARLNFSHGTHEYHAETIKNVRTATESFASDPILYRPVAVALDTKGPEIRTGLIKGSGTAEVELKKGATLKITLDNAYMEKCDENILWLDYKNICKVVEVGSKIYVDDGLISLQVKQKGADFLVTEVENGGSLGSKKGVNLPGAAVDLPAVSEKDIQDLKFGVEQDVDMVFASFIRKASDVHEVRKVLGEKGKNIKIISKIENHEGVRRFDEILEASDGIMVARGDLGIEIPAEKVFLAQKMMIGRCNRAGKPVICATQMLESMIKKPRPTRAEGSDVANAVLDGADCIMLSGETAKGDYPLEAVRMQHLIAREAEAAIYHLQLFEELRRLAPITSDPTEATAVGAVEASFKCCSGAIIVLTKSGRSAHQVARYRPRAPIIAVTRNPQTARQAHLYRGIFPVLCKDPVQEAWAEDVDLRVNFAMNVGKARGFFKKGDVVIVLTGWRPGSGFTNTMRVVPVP
T2 sequence (P14618 whole entry): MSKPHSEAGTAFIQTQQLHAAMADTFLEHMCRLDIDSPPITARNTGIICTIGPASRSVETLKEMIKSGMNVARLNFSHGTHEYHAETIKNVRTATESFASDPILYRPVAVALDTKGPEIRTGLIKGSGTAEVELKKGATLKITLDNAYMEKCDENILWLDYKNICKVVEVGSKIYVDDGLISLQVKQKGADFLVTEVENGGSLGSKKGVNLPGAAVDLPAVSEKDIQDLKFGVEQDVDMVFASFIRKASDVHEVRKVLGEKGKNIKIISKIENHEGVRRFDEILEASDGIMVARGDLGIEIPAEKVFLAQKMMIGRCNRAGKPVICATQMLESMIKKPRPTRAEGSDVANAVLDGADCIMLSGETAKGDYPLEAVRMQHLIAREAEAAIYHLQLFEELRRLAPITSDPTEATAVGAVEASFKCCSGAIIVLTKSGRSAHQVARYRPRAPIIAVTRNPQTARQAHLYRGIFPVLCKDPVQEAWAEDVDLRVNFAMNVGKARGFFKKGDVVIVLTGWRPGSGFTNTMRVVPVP
T3 sequence (P30613 whole entry): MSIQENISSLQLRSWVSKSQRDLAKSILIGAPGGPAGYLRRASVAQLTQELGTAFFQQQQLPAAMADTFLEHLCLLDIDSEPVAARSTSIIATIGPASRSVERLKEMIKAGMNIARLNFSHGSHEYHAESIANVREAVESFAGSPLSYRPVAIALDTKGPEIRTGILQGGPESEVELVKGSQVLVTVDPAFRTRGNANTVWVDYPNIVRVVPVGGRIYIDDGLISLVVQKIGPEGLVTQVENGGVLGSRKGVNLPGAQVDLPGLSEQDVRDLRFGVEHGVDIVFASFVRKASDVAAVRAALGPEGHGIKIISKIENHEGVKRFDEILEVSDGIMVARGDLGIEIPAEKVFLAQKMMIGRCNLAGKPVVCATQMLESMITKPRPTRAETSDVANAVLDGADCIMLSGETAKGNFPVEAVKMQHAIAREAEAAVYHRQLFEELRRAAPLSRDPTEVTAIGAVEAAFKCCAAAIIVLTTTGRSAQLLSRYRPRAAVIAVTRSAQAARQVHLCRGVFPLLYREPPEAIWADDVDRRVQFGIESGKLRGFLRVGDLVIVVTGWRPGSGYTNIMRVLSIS

For `Cn1cc(S(=O)(=O)c2ccc3c(=O)n(Cc4cc5n(n4)CCO5)ncc3c2)cn1` [Example 5, 2-((2,3-dihydropyrazolo[5,1-b]oxazol-6-yl)methyl)-6-((1-methyl-1H-pyrazol-4-yl)sulfonyl)phthalazin-1(2H)-one], the EC50 in assay [1] was 93 nM; at recombinant human PKM2 it was 98.9 nM and 207 nM; at recombinant human PKLR it was 23.3 nM and 27.6 nM. The “hPKM2 Emax” value at recombinant human PKM2 (setting [2]) is on record as 104* %. Moreover, the Emax at recombinant human PKM2 (setting [2]) is 110%; at recombinant human PKLR (setting [2]), 121%. Moreover, the “hPKLR Emax” value on recombinant human PKLR (setting [2]) is listed as 128* %.
For `COc1ccc(Cn2ncc3cc(S(=O)(=O)c4cn[nH]c4)ccc3c2=O)nc1` [Example 1, 6-((1H-pyrazol-4-yl)sulfonyl)-2-((5-methoxypyridin-2-yl)methyl)phthalazin-1(2H)-one], the EC50 was 97 nM in assay [1], 114 nM at recombinant human PKM2 and 16 nM on recombinant human PKLR. For the same compound, the Emax on recombinant human PKM2 (setting [2]) is 111%; on recombinant human PKLR (setting [2]) it was 119%.
For `O=c1c2ccc(S(=O)(=O)c3cn[nH]c3)cc2cnn1Cc1cc2n(n1)CCO2` [Example 4, 6-((1H-pyrazol-4-yl)sulfonyl)-2-((2,3-dihydropyrazolo[5,1-b]oxazol-6-yl)methyl)phthalazin-1(2H)-one], the EC50 in assay [1] worked out at 125 nM; at recombinant human PKM2, 51 nM; on recombinant human PKLR, 6.4 nM. The maximal effect (Emax) at recombinant human PKM2 (setting [2]) was 91%; at recombinant human PKLR (setting [2]) it was 122%.
On to `Cc1[nH]nc(Cn2ncc3cc(S(=O)(=O)c4cc[nH]n4)ccc3c2=O)c1Cl` [Example 6, 6-((1H-pyrazol-3-yl)sulfonyl)-2-((4-chloro-5-methyl-1H-pyrazol-3-yl)methyl)phthalazin-1(2H)-one], for which the EC50 was determined as 94 nM in assay [1] and 43 nM on recombinant human PKM2. Further, the maximal response (Emax) at recombinant human PKM2 (setting [2]) was determined as 94%.
As for `O=c1c2ccc(S(=O)(=O)c3cnn(CCO)c3)cc2cnn1Cc1ccc2c(n1)CCO2` [Example 3, 2-((2,3-dihydrofuro[3,2-b]pyridin-5-yl)methyl)-6-((1-(2-hydroxyethyl)-1H-pyrazol-4-yl)sulfonyl)phthalazin-1(2H)-one], the EC50 in assay [1] was 70 nM; at recombinant human PKM2, 50 nM; at recombinant human PKLR, 6.6 nM. Further, the maximal response (Emax) on recombinant human PKM2 (setting [2]) was determined as 108%; on recombinant human PKLR (setting [2]), 118%.
For `O=c1c2ccc(S(=O)(=O)c3cnn(C(F)F)c3)cc2cnn1Cc1cc[nH]n1` [Example 2, 2-((1H-pyrazol-3-yl)methyl)-6-((1-(difluoromethyl)-1H-pyrazol-4-yl)sulfonyl)phthalazin-1(2H)-one], in that order: 168 nM, 104 nM, 33.1 nM, 100% and 123%.

The values are drawn from patent US12448367B2, “Phthalazine derivatives as pyruvate kinase modulators” (Sitryx Therapeutics Limited, priority 2022, dated 2025).
